Source: ChEMBL document CHEMBL1159237, “The isolation and structural elucidation of three new neolignans, piperulins [corrected] A, B, and C, as platelet activating factor receptor antagonists from Piper puberulum” (J Nat Prod, 1995)

Assays:
Oryctolagus cuniculus = species: Oryctolagus cuniculus; assay: Displacement of [3H]PAF from rabbit PAF receptor in isolated platelet plasma membrane at 10 uM; assay type: cell membranes
[1] = Displacement of [3H]PAF from rabbit PAF receptor in isolated platelet plasma membrane; assay type: cell membranes, Oryctolagus cuniculus

| Activity (Oryctolagus cuniculus) | IC50 [1] | SMILES | Ki [1] |
| --- | --- | --- | --- |
| 63% | 7.3 µM | C=CCC1=C[C@@]2(OC)[C@@H](C)[C@H](c3ccc(OC)c(OC)c3)[C@@H](C1=O)[C@@H]2OC(C)=O [PUBERULIN A] | 4.7 µM |
| 43% | ≥ 10 µM | C=CCC1=C[C@@]2(OC)[C@@H](C)[C@H](c3ccc4c(c3)OCO4)[C@@H](C1=O)[C@@H]2OC(C)=O [PUBERULIN B] | – |
| 66% | 5.7 µM | C=CC[C@]12C=C(OC)C(=O)[C@H]([C@@H](c3ccc(O)c(OC)c3)[C@@H]1C)[C@@H]2OC(C)=O [PUBERULIN C] | 3.7 µM |
